Common to all, as to format: functional
Assay [1] has as its system Acinetobacter baumannii. Kind of assay: Antibacterial activity against Acinetobacter baumannii ATCC 19606 after 18 hrs by broth dilution method. The conditions noted are these: ATCC 19606 = CIP 70.34 = JCM 6841, 18 h.
Assay [2] relates to Escherichia coli. Kind of assay: Antibacterial activity against Escherichia coli 700 expressing TolC after 18 hrs by broth dilution method. Conditions: Escherichia coli, 700, 18 h. On the technique in general: Dilution methods test growth across graded concentrations, often in twofold steps.
In assay [3] the test system is Escherichia coli. The assay can be described thus: Antibacterial activity against TolC deficient Escherichia coli 701 after 18 hrs by broth dilution method. Conditions: Escherichia coli, 701, 18 h.
Assay [4] concerns Pseudomonas aeruginosa. Kind of assay: Antibacterial activity against Pseudomonas aeruginosa PAO1 ATCC BAA-47 after 18 hrs by broth dilution method. Conditions: PAO1 ATCC BAA-47, 18 h.
Assay [5] deals with Pseudomonas aeruginosa. The assay can be described thus: Antibacterial activity against Pseudomonas aeruginosa PAO1 harboring oprM deltamexAB after 18 hrs by broth dilution method. Conditions: PAO1, 18 h.
In assay [6] the test system is Stenotrophomonas maltophilia. The assay can be described thus: Antibacterial activity against Stenotrophomonas maltophilia ATCC 13637 after 18 hrs by broth dilution method. The conditions noted are these: ATCC 13637, 18 h.
In assay [7] the test system is Klebsiella pneumoniae. Kind of assay: Antibacterial activity against Klebsiella pneumoniae ATCC 700603 after 18 hrs by broth dilution method. Conditions: ATCC 700603, 18 h.
The subject of assay [8] is Bacillus subtilis. The assay can be described thus: Antibacterial activity against Bacillus subtilis BD54 after 18 hrs by broth dilution method. Conditions: BD54, 18 h.
Assay [9] relates to Bacillus anthracis. Kind of assay: Antibacterial activity against Bacillus anthracis Sterne after 18 hrs by broth dilution method.
For assay [10], the system named is Staphylococcus aureus. The assay can be described thus: Antibacterial activity against Staphylococcus aureus ATCC 25923 after 18 hrs by broth dilution method. The conditions noted are these: ATCC 25923, 18 h.
The subject of assay [11] is Staphylococcus aureus. Kind of assay: Antibacterial activity against methicillin-resistant Staphylococcus aureus 1094 after 18 hrs by broth dilution method. Conditions: Staphylococcus aureus, 1094, 18 h.
The test system of assay [12] is Enterococcus faecalis. The assay can be described thus: Antibacterial activity against Enterococcus faecalis ATCC 29212 after 18 hrs by broth dilution method. The conditions noted are these: ATCC 29212, 18 h.
Assay [13] has as its system Enterococcus faecalis. Kind of assay: Antibacterial activity against vancomycin-resistant Enterococcus faecalis ATCC 51575 after 18 hrs by broth dilution method. Conditions: ATCC 51575, 18 h.
Assay [14] relates to Burkholderia cepacia. Kind of assay: Antibacterial activity against Burkholderia cepacia ATCC 39277 after 18 hrs by broth dilution method. The conditions noted are these: ATCC 39277, 18 h.
Assay [15] concerns Burkholderia cepacia. The assay can be described thus: Antibacterial activity against Burkholderia cepacia ATCC 55792 after 18 hrs by broth dilution method. The conditions noted are these: ATCC 55792, 18 h.
Assay [16] concerns Escherichia coli. Kind of assay: Antibacterial activity against Escherichia coli ATCC 29425 after 18 hrs by broth dilution method. Conditions: ATCC 29425, 18 h.
Assay [17] has as its system Escherichia coli. Kind of assay: Antibacterial activity against Escherichia coli ATCC 29425 after 16 to 18 hrs by agar dilution method. A general note: Agar dilution tests growth on a series of plates holding different concentrations.
Assay [18] deals with Staphylococcus aureus. Kind of assay: Antibacterial activity against Staphylococcus aureus ATCC 25923 after 16 to 18 hrs by agar dilution method.
Assay [19] concerns Enterococcus faecalis. Kind of assay: Antibacterial activity against Enterococcus faecalis ATCC 29212 after 16 to 18 hrs by agar dilution method.
Assay [20] deals with Klebsiella pneumoniae. Kind of assay: Antibacterial activity against Klebsiella pneumoniae ATCC 13882 after 18 hrs by broth dilution method. Conditions: ATCC 13882, 18 h.

Drawing on ChEMBL document CHEMBL1833882, “Preparation and antibacterial evaluation of decarboxylated fluoroquinolones” (2011), this text covers MIC for 1 molecule.

As usually defined, the MIC is the least concentration at which growth counts as inhibited. Read a high MIC as a need for much substance.

In brackets after ≈: the same amount, converted by molar mass.

Take `CCn1cc(C(=O)O)c(=O)c2cc(F)c(N3CCNCC3)cc21` [NORFLOXACIN]: the minimum inhibitory concentration (MIC) in assay [1] turned out to be 10 µg/mL (≈ 31.3 µM); in assay [2], 0.059 µg/mL (≈ 0.185 µM); in [3], 0.039 µg/mL (≈ 0.122 µM); in [4], 1.25 µg/mL (≈ 3.91 µM); in [5], 0.039 µg/mL (≈ 0.122 µM); in assay [6], 1.25 µg/mL (≈ 3.91 µM). Also, the MIC in assay [7] came to 0.938 µg/mL (≈ 2.94 µM); in assay [8], 0.625 µg/mL (≈ 1.96 µM); in assay [9] it was 0.313 µg/mL (≈ 0.98 µM); in assay [10] it was 1.25 µg/mL (≈ 3.91 µM); in assay [11] it was 40 µg/mL (≈ 125 µM); in [12], 2.5 µg/mL (≈ 7.83 µM). In addition, the MIC stood at 2.5 µg/mL (≈ 7.83 µM) in assay [13]; 1.25 µg/mL (≈ 3.91 µM) in assay [14]; 2.5 µg/mL (≈ 7.83 µM) in assay [15]; 0.12 µg/mL (≈ 0.376 µM) in assay [16]; 0.01 µg/mL (≈ 0.0313 µM) in assay [17]; 2 µg/mL (≈ 6.26 µM) in [18]. The MIC was 2 µg/mL (≈ 6.26 µM) in [19] and 0.117 µg/mL (≈ 0.366 µM) in assay [20].
